Values joined by “and” are separate entries in the source; they are usually repeats but may differ in a detail not shown here. Equal values may be shown once.
Legend:
[1] = system: Jurkat cells; experiment: Jurkat IL-2 secretion detection (anti-CD3/CD28 beads, ELISA); type: cell-based, human; details: for Maximum induction factor: IL-2 secretion, Jurkat cells; for EC3x: concentration for IL-2 secretion of Jurkat cells to reach 3 times the baseline, 20 h
Protocol: Pharmacological Experiment 5: Jurkat IL-2 Secretion Detection
• (1) Take the cultured Jurkat cells, adjust the density to 1×10^6 cells/mL, and inoculate them in a flat-bottom […] plate (Jet Biofil, TCP011096), with 100 μL per well, • (2) Add 50 μL of the test compound to each well and incubate at 37° C. for 30 min; • (3) Take human anti-CD3/CD28 magnetic beads (Miltenyi, 130-091-441), wash once with RPMI-1640 complete medium, and adjust the density to 4×106 beads/mL for later use; • (4) After the compound incubation, 50 μL of anti-human CD3/CD28 magnetic beads were added to each well and cultured at 37° C. for 20 h, • (5) The cell culture supernatant was obtained and the IL-2 secretion was detected using the Human IL-2 DuoSet ELISA kit (R&D, DY008); • (6) The log value of the concentration was used as the X-axis and the IL-2 secretion was used as the Y-axis. The “log (agonist) vs. response-variable slope” equation of the analysis software GraphPad Prism 7 was used to fit the dose-effect curve, thereby obtaining the […] and the […]

[2] = molecular target: T1, HPK1 (Homo sapiens (Human), UniProt Q92918); experiment: HPK1 enzyme activity detection (1 mM ATP system), ADP-Glo with MBP substrate, Pharmacological Experiment 2; type: biochemical
T1 sequence (Q92918 whole entry, species assumed): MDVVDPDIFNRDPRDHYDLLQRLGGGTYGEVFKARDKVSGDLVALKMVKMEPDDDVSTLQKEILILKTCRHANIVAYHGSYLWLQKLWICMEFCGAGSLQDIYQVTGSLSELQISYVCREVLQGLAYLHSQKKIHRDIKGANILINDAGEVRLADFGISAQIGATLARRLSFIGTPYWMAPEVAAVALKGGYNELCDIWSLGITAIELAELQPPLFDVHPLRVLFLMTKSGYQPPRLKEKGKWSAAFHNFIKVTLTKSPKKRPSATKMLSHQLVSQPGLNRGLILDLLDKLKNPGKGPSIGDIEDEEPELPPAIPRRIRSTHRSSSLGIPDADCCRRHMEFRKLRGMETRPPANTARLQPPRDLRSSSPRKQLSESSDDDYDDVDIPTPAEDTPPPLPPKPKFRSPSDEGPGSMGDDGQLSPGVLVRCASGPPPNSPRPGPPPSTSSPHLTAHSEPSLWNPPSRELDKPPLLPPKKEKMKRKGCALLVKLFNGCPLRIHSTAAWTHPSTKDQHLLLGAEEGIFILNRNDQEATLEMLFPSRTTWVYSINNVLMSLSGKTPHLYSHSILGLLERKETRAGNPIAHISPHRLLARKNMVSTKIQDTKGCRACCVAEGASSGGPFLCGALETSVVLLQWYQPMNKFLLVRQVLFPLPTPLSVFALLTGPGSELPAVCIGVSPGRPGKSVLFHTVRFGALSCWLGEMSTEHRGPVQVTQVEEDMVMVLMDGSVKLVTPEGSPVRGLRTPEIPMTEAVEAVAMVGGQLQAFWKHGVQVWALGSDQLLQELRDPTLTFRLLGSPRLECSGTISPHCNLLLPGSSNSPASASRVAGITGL
Method in brief: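 Compound in DMSO preincubated with HPK1 for 15 min at 25 °C, then reaction started with ATP (1 mM system) and MBP substrate for 60 min at 25 °C. ADP formed quantified by ADP-Glo luminescence; IC50 derived from percentage inhibition.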

[3] = molecular target: T1, HPK1; experiment: HPK1 enzyme activity detection (1 mM ATP system), ADP-Glo, Pharmacological Experiment 1; type: biochemical
Protocol: Pharmacological Experiment 1: HPK1 Enzyme Activity Detection (1 mM ATP System)
• (1) Take ADP-GloTMKinase Assay Kit (Promega, Cat. No. V9102) to prepare 4× kinase buffer. • (2) Compound gradient dilution: The compound to be tested is diluted 3-fold, and 11 gradient concentrations are set, and each concentration is set for duplicate well detection. Serial dilutions were made in a 384-well plate to the corresponding 100×final concentration solution, and then 0.1 μL was transferred to the 384-well reaction plate for testing using Echo. Transfer 0.1 μL of 100% DMSO to the smallest and largest wells. • (3) Prepare HPK1 enzyme working solution using 4× kinase buffer. • (4) Add 5 μL of HPK1 enzyme working solution to each well and 5 μL of 1× kinase buffer to the smallest well. Centrifuge at 1000 rpm for 1 min and incubate at 25° C. for 15 min. • (5) During the incubation period, prepare the substrate working solution using 4× kinase buffer. • (6) Add 5 μL of substrate working solution containing 1 mM ATP to each well of the reaction plate, centrifuge at 1000 rpm for 1 min, and incubate at 25° C. for 60 min. • (7) At the end of incubation, add 5 μL of ADP Glo reagent to each well. Centrifuge at 1000 rpm for 1 min and incubate at 25° C. for 60 min. • (8) Add 10 μL of detection solution to each well, centrifuge at 1000 rpm for 1 min, and incubate at 25° C. for 60 min. • (9) Read using EnVision.
Inhibition rate calculation formula:
[formula] • Vehicle: Reading value of DMSO control well • Blank: No enzyme well reading • Largest well: Reading value of DMSO control well • Minimum well: No enzyme well reading
The log value of the concentration was used as the X-axis and the percentage inhibition rate was used as the Y-axis. The “log (inhibitor) vs. response—variable slope” of the analysis software GraphPad Prism 5 was used to fit the dose-effect curve to obtain the IC 50 value of the compound's inhibition of kinase binding.
See Table 1 for the enzymatic IC 50 data of the example compounds on HPK1.

[4] = molecular target: GLK (Homo sapiens (Human), UniProt Q8IVH8); experiment: GLK kinase assay (1 mM ATP system), ADP-Glo; type: biochemical
GLK, sequence (Q8IVH8 whole entry, species assumed): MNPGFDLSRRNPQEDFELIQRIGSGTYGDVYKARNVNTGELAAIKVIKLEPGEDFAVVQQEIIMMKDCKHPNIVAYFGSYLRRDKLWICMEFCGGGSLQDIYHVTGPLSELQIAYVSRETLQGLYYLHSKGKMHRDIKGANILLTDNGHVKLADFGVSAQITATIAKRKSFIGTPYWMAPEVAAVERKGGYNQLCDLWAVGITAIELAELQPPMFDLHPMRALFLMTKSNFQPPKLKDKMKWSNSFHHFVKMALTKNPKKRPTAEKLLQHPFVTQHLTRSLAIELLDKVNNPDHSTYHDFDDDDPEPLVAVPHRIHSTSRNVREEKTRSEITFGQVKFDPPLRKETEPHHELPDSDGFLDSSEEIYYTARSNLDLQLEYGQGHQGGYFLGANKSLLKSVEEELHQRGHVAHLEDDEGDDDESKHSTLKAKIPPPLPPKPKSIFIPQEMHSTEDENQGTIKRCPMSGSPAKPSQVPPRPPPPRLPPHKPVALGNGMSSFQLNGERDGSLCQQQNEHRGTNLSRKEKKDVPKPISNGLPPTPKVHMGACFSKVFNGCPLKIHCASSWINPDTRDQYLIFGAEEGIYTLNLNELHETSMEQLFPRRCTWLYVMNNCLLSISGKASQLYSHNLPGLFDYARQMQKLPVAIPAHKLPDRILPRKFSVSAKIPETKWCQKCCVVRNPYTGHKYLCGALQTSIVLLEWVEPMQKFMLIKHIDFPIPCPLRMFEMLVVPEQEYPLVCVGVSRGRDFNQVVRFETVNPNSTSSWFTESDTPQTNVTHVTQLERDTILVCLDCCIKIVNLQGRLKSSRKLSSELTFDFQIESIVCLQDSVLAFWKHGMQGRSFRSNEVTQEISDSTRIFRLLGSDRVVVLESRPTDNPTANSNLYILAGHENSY
Method in brief: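 GLK kinase reaction with 1 mM ATP and MBP substrate ran 60 min at 25 °C after 15 min preincubation of enzyme with compound. ADP formed was detected by ADP-Glo luminescence; percent inhibition used to derive IC50.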

[5] = system: human peripheral blood mononuclear cells; experiment: Detection of IFN-γ secretion in human peripheral blood mononuclear cells (anti-CD3/CD28 beads, ELISA); type: cell-based; details: for Maximum induction factor: IFN-γ secretion, human PBMC; for EC3x: concentration for IFN-γ secretion of human PBMC to reach 3 times the baseline, 3 days
Protocol: Pharmacological Experiment 4: Detection of IFN-γ Secretion in Human Peripheral Blood Monocytes
• (1) Take human peripheral blood mononuclear cells frozen in liquid nitrogen, thaw in a 37° C. water bath, add 5 mL of preheated RPMI-1640 complete medium (containing 10% fetal bovine serum and penicillin/streptomycin), centrifuge at 500 g for 10 minutes, and discard the supernatant; • (2) Resuspend the cells in RPMI-1640 complete medium, adjust the density to 5×10^6 cells/mL, inoculate in a low-adhesion 6-well plate (Corning, 3471), and culture at 37° C. for 2 days; • (3) Collect cultured human peripheral blood mononuclear cells, centrifuge at 500 g for 10 min, and discard the supernatant; • (4) Resuspend the cells in RPMI-1640 complete medium, adjust the density to 1×10^6 cells/mL, and inoculate them in a round-bottom 96-well plate (Jet Biofil, TCP-002-096), with 100 μL per well; • (5) Add 50 μL of the test compound to each well and incubate at 37° C. for 30 min; • (6) Take human anti-CD3/CD28 magnetic beads (Miltenyi, 130-091-441), wash once with RPMI-1640 complete medium, and adjust the density to 0.5×106 beads/mL for later use; • (7) After the compound incubation, 50 μL of anti-human CD3/CD28 magnetic beads were added to each well and cultured at 37° C. for 3 days, • (8) The cell culture supernatant was obtained and the IFN-γ secretion was detected using the Human IFN-gamma DuoSet ELISA kit (R&D, DY285B-05); • (9) The log value of concentration was used as the X-axis and the IFN-γ secretion amount was used as the Y-axis. The “log (agonist) vs. response−variable slope” equation of the analysis software GraphPad Prism 7 was used to fit the dose-effect curve, thereby obtaining the EC3x value and the maximum induction factor of the compound for the secretion of IFN-γ from human peripheral blood mononuclear cells to reach 3 times the baseline.

[6] = PK study of compound in dogs; type: in vivo; details: Beagle dog, PO 5 mg/kg, DMSO/Solutol/saline
Protocol: Pharmacological Experiment 6: PK Study of Compound in Dogs The compound was mixed with a solvent of saline or 10% DMSO/5% Solutol/85% saline or 10% DMSO/10% Solutol/80% saline (specific solvents are shown in the table below), vortexed and sonicated to prepare a clear oral solution. […] The drug concentration was analyzed by LC-MS/MS method, and the pharmacokinetic parameters were calculated using Phoenix WinNolin software (Pharsight, USA).

Molecule	Maximum induction factor [1]	EC3x [1] [nM]	IC50 [2] [nM]	IC50 [3] [nM]	IC50 [4] [nM]	Maximum induction factor [5]	EC3x [5]	Bioavailability F % [6] [%]	PO Plasma AUC [6] [ng·h/mL]	T1/2 [6] [h]
O=C1NCc2c(-c3cnc4cc(F)ccn34)ccc(Nc3ccc4c(n3)C(N3CCCC3)CC43CCOCC3)c21 (stereo not shown) [Compound 40, 4-(7-FLUOROIMIDAZO[1,2-A]PYRIDIN-3-YL)-7-((7-(PYRROLIDIN-1-YL)-2′,3′,5′,6,6′,7-HEXAHYDROSPIRO[B]PYRIDIN-5,4′-PYRAN]-2-YL)AMINO)ISOINDOLIN-1-ONE]	11.5	163	4.8							
Cc1cc(Nc2ccc(-c3cnc4cc(F)ccn34)c3c2C(=O)NC3)cc2c1C1(CC1)CN(C)C2 [Compound 16]				20.6						
O=C1NCc2c(-c3cnc4cc(F)ccn34)ccc(Nc3ccc4c(n3)C(NC3CCOCC3)CC43CCOCC3)c21 (stereo not shown) [Compound 108]	8.4	448	3.29		1050					
CC(C)NC1CC2(CCOCC2)c2ccc(Nc3ccc(-c4cnc5cc(F)ccn45)c4c3C(=O)NC4)nc21 (stereo not shown) [Compound 104]	8.3	172	3.49		552					
O=C1NCc2c(-c3cnc4cc(F)ccn34)ccc(Nc3ccc4c(n3)C(NC3CCOC3)CC43CCOCC3)c21 (stereo not shown) [Compound 107]			3.55		1200	8.8	296 nM			
Cc1cc(Nc2ccc(-c3cnc4cc(F)ccn34)c3c2C(=O)NC3)cc2c1C1(CCOCC1)CN(C)C2 [Compound 15]				6.14						
O=C1NCc2c(-c3cnc4cc(F)ccn34)ccc(Nc3ccc4c(n3)C(N3CC[C@H](F)C3)CC43CCOCC3)c21 (stereo partly shown) [Compound 75]			2.78		273	8.3 and 10.5	64 nM and 119 nM			
O=C1NCc2c(-c3cnc4cc(Cl)ccn34)ccc(Nc3ccc4c(n3)CCCC43CCOCC3)c21 [Compound 122]			3.21		455	16.2	56 nM			
CN(C)C1CCC2(CCOCC2)c2ccc(Nc3ccc(-c4cnc5cc(F)ccn45)c4c3C(=O)NC4)cc21 (stereo not shown) [Compound 1]				61.2						
CN(C)C1CC2(CCOCC2)c2ccc(Nc3ccc(-c4cnc5cc(C6CC6)ccn45)c4c3C(=O)NC4)nc21 (stereo not shown) [Compound 164, 4-(7-CYCLOPROPYLIMIDAZO[1,2-A]PYRIDIN-3-YL)-7-((7-(DIMETHYLAMINO)-2′,3′,5′,6,6′,7-HEXAHYDROSPIRO[CYCLOPENTANE[B]PYRIDINE-5,4′-PYRAN]-2-YL)AMINO)ISOINDOL-1-ONE]			10.6		105	9.2	458 nM			
Cc1ccn2c(-c3ccc(Nc4ccc5c(n4)CCCC54CCOCC4)c4c3CNC4=O)cnc2c1 [Compound 121]			3.35		679	19.4	140 nM			
4-(7-FLUOROIMIDAZO[1,2-A]PYRIDIN-3-YL)-7-((2,3,5,6,7′,8′-HEXAHYDRO-6′H-SPIRO[PYRAN-4,5′-[1,7]NAPHTHYRIDINE]-2′-YL)AMINO)ISOINDOL-1-ONE [Compound 87]			5.12		724	11.2	193 nM			
Cc1ccn2c(-c3ccc(Nc4ccc5c(n4)C(N(C)C)CC54CCOCC4)c4c3CNC4=O)cnc2c1 (stereo not shown) [Compound 161]			3.57		311	6.4	67 nM			
O=C1NCc2c(-c3cnc4cc(F)ccn34)ccc(Nc3ccc4c(n3)CCCC43CCC3)c21 [Compound 125]			11.1		1200	20.2	173 nM			
O=C1NCc2c(-c3cnc4cc(F)ccn34)ccc(Nc3ccc4c(n3)CCCC43CCCC3)c21 [Compound 127]			5.23		767	19.1	74.6 nM			
O=C1NCc2c(-c3cnc4cc(OC(F)F)ccn34)ccc(Nc3ccc4c(n3)CNCC43CCOCC3)c21 [Compound 123]			12.1		896	26.8	214 nM			
CN(C)C1CC2(CCOC2)c2ccc(Nc3ccc(-c4cnc5cc(Cl)ccn45)c4c3C(=O)NC4)nc21 (stereo not shown) [Compound 151]			6.34		970	6.5	53 nM			
CN(C)[C@@H]1CC2(CCOCC2)c2ccc(Nc3ccc(-c4cnc5cc(OC(F)F)ccn45)c4c3C(=O)NC4)nc21 [Compound 158A, (R)-4-(7-(DIFLUOROMETHOXY)IMIDAZOL 1,2-A]PYRIDIN-3-YL)-7-((7-DIMETHYLAMINO)-2′,3′,5′,6,6′,7-HEXAHYDROSPIRO[CYCLOPENTADIENYL[B]PYRIDINE-54′-PYRAN]-2-YL)AMINO)ISOINDOLIN-1-ONE]			3		206	10.8	167 nM	43	2704	6.06
CN(C)C1CC2(CCOC2)c2ccc(Nc3ccc(-c4cnc5cc(F)ccn45)c4c3C(=O)NC4)nc21 (stereo not shown) [Compound 58, 7-((7-(DIMETHYLAMINO)-4′,5′,6,7-TETRAHYDRO-2′H-SPIRO[CYCLOPENTANE[B]PYRIDINE-5,3′-FURAN]-2-YL)AMINO)-4-(7-FLUOROIMIDAZO[1,2-A]PYRIDIN-3-YL)ISOINDOL-1-ONE]			5.25		1480	6.5	352 nM			
O=C1NCc2c(-c3cnc4cc(Cl)ccn34)ccc(Nc3ccc4c(n3)C(N3CCCC3)CC43CCOCC3)c21 (stereo not shown) [Compound 103]			4.67		291	5.3	123 nM			
